Reference: PubChem BioAssay AID493130 (Broad Institute, 2011)
Inconclusive results are not listed. The source made the active and inactive calls.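 Rule for the calls: active = signal-lowering compounds whose fitted half-maximal concentration is at most ten times their highest tested dose; inconclusive = flat fit between -30 and -70%, or poor fit; inactive = flat within 30%, signal rising, or potency beyond limit.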

Biological target: POS-1 (Caenorhabditis elegans) binding to mex-3 RNA
Experiment: inhibitors of POS-1/mex-3 RNA binding, dose response, counter-screen for MEX-5 RNA-binding inhibitor project, biochemical, fluorescence polarization, cherry-picked samples, set 2 (AID 493130);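 note: POS-1 as maltose binding protein fusion made in E. coli with FITC RNA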
Settings: POS-1/mex-3 RNA fluorescence polarization, 1 h; for activity change, negative = inhibition: at 10 µM (top of the series)

Structure (SMILES): COc1ccccc1C(=O)NNC(=O)c1csc(N2CCOCC2)n1
- activity change, negative = inhibition: inactive

Structure (SMILES): CCCn1c(=N)c(C(=O)NC2CCCC2)cc2c(=O)n3cccc(C)c3nc21
- activity change, negative = inhibition: inactive

Structure (SMILES): C/C=C(\C)CN1CCC(n2nccc2NC(=O)CCCc2ccccc2)CC1
- activity change, negative = inhibition: inactive

Structure (SMILES): Nc1ccc(N(CCO)CCO)cc1
- AC50: 6.49 µM

Structure (SMILES): O=c1c2ccccc2c(C=Nc2ccc(O)cc2)c(O)n1-c1nccs1
- activity change, negative = inhibition: inactive

Structure (SMILES): O=C1CS/C(=N\NC(=O)c2ccccc2)N1
- activity change, negative = inhibition: inactive

Structure (SMILES): CCOC(=O)c1sc2nc(C)[nH]c(=S)c2c1C
- activity change, negative = inhibition: inactive

Structure (SMILES): Cc1ccc2c(c1Cl)NC(C(=O)O)C1CC(Sc3ccccc3[N+](=O)[O-])C(Cl)C21 (stereo not drawn)
- activity change, negative = inhibition: inactive

Structure (SMILES): CCCc1nc2c(=O)n(C)c(=O)[nH]c2n1C
- activity change, negative = inhibition: inactive

Structure (SMILES): Cc1cc(/C=C(\C#N)c2nc3ccccc3[nH]2)c(C)n1C
- activity change, negative = inhibition: inactive

Structure (SMILES): O=C(O)c1ccc2c(c1)ncn2C1CCCCC1
- activity change, negative = inhibition: inactive

Structure (SMILES): Nc1nonc1C(=O)N/N=C/c1cc(Br)ccc1O
- activity change, negative = inhibition: inactive

Structure (SMILES): COCC(C)N1CCC(Oc2cccc(C(=O)NCCc3ccccc3)c2)CC1 (stereo not drawn)
- activity change, negative = inhibition: inactive

Structure (SMILES): COc1ccc(NC(=O)c2coc(C)c2)cc1
- activity change, negative = inhibition: inactive

Structure (SMILES): CC1=CC2=NC(=O)/C(=C\c3ccc(-c4cccc(Cl)c4)o3)C(=N)N2O1
- activity change, negative = inhibition: inactive

Structure (SMILES): CCOC(=O)c1c(=O)n(O)c2ccc(OC)cc2[n+]1[O-]
- activity change, negative = inhibition: inactive

Structure (SMILES): FC(F)(F)c1nc2cc3nc4ccccc4[nH]c3cc2n1
- activity change, negative = inhibition: inactive

Structure (SMILES): Cc1cc2ccccc2n1CCNC(=O)c1ccc(Br)o1
- activity change, negative = inhibition: inactive

Structure (SMILES): O=C1/C(=C\c2ccc(Br)o2)Cc2ccccc21
- activity change, negative = inhibition: inactive

Structure (SMILES): Nc1ccccc1C(=O)NNC(=O)C(=O)/C=C(\O)c1ccccc1
- activity change, negative = inhibition: inactive

Structure (SMILES): Cc1cc([N+](=O)[O-])nn1CC(=O)NNC(=S)Nc1ccc(F)cc1
- activity change, negative = inhibition: inactive

Structure (SMILES): COc1cc2c(cc1O)CC1c3c(cc(O)c(OC)c3-2)CCN1C (stereo not drawn)
- activity change, negative = inhibition: inactive

Structure (SMILES): CC1(C)NC(=O)NC2(C)NC(=O)NC(C)(C)C12 (stereo not drawn)
- activity change, negative = inhibition: inactive

Structure (SMILES): CN1C(=O)NC(c2ccccc2Cl)C2=C1CC(C)(C)CC2=O (stereo not drawn)
- activity change, negative = inhibition: inactive

Structure (SMILES): Cc1ccc(-c2nc(C=Nc3cccc(C)c3)c(O)o2)cc1
- activity change, negative = inhibition: inactive

Structure (SMILES): O=c1[nH]nc(CNc2ccc(OC(F)(F)F)cc2)c2ccccc12
- activity change, negative = inhibition: inactive

Structure (SMILES): CCOC(=O)[C@]1(C#N)[C@@H]2C=CC(C(N)=O)=CN2[C@@H](C(N)=O)[C@@H]1c1ccc(F)cc1
- activity change, negative = inhibition: inactive

Structure (SMILES): Cc1cc(C)c2c(c1)NC(C(=O)O)C1CC=CC21 (stereo not drawn)
- AC50: 6.96 µM

Structure (SMILES): CNC(=O)/C(C#N)=C/c1ccc(-c2nc3ccccc3s2)o1
- AC50: 3.91 µM

Structure (SMILES): O=c1cc(-c2ccccc2Cl)oc2c(NS(=O)(=O)c3ccccc3OC(F)(F)F)ccc(O)c12
- activity change, negative = inhibition: inactive

Structure (SMILES): COc1ccc(NC(=O)/C=C/c2cccc(C(F)(F)F)c2)cn1
- activity change, negative = inhibition: inactive

Structure (SMILES): CS(=O)(=O)Nc1ccc(-c2ccc(/C=C3\SC(N)=NC3=O)o2)cc1
- activity change, negative = inhibition: inactive

Structure (SMILES): CC(=O)NN1C(=O)/C(=C2/Sc3ccccc3N2C)SC1=S
- activity change, negative = inhibition: inactive

Structure (SMILES): O=C(N/N=C/c1oc(O)c2ccccc12)c1ccccc1O
- activity change, negative = inhibition: inactive

Structure (SMILES): N=C1CCC(=N)c2c1c(O)c1ccccc1c2O
- AC50: 5.58 µM

Structure (SMILES): NS(=O)(=O)c1ccc(N=Nc2c(=O)[nH]n3c(=O)c4c([nH]c23)CCCC4)cc1
- AC50: 0.251 µM

Structure (SMILES): COc1ccc(/C=C/C(=O)c2cc(Cl)cc(Cl)c2O)c(OC)c1
- activity change, negative = inhibition: inactive

Structure (SMILES): CC1=CC2=NC(=O)/C(=C\c3cn(C)c4ccccc34)C(=N)N2O1
- activity change, negative = inhibition: inactive

Structure (SMILES): CN(N)N=Nc1nc2c([nH]1)c(=O)n(C)c(=O)n2C
- activity change, negative = inhibition: inactive

Structure (SMILES): COc1ccc(N=Nc2nc3ccc(Br)cc3n2C)cc1
- AC50: 2.16 µM

Structure (SMILES): CN1CCN(c2nc(-c3ccccc3)nc(-c3ccccc3)c2C#N)CC1
- activity change, negative = inhibition: inactive

Structure (SMILES): Cc1cc[n+](-c2[nH]c(=O)sc2/C=N/NC([S-])=Nc2ccccc2)cc1
- AC50: 2.39 µM

Structure (SMILES): Cn1ccc(=Nc2ccc(NC(=O)c3ccc(N=c4ccn(C)c5ccc([N+](=O)[O-])cc45)cc3)cc2)cc1
- activity change, negative = inhibition: inactive

Structure (SMILES): O=C(O)CCCN1C(=O)/C(=C\c2ccc(-c3nc4ccccc4s3)o2)SC1=S
- activity change, negative = inhibition: inactive

Structure (SMILES): CCCOc1ccc(C2=CSC3=NCCN23)cc1[N+](=O)[O-]
- activity change, negative = inhibition: inactive

Structure (SMILES): CNC(=O)c1cc2ccc(OC)cc2oc1=O
- activity change, negative = inhibition: inactive

Structure (SMILES): Nc1ccc2oc(-c3ccccc3Cl)cc(=O)c2c1O
- activity change, negative = inhibition: inactive

Structure (SMILES): Nc1nc(-c2ccc(Cl)cc2)nnc1-c1ccc(Br)cc1
- activity change, negative = inhibition: inactive

Structure (SMILES): O=c1[nH]nc(CNc2ccc(Cl)cc2Cl)c2ccccc12
- activity change, negative = inhibition: inactive

Structure (SMILES): CC(C)c1cc[n+](-c2nc([O-])sc2C=O)cc1
- activity change, negative = inhibition: inactive

Structure (SMILES): COc1cccc(NCc2cc(=O)oc3cc(C)c(C(C)C)cc23)c1
- activity change, negative = inhibition: inactive

Structure (SMILES): Cc1cc(/C=C2\C(=O)NC(=O)N(c3cccc(Br)c3)C2=O)c(C)n1C
- activity change, negative = inhibition: inactive

Structure (SMILES): Cc1cc(C)cc(NC(=O)N(C)Cc2ccccc2)c1
- activity change, negative = inhibition: inactive

Structure (SMILES): CCC(COC(C)=O)Nc1nc2c([nH]1)c(=O)n(C)c(=O)n2C (stereo not drawn)
- activity change, negative = inhibition: inactive

Structure (SMILES): Cc1snc2sc(C(=O)c3ccc(Br)cc3)c(N)c12
- activity change, negative = inhibition: inactive

Structure (SMILES): COc1ccccc1N1C(=O)C2C(C(=O)c3ccccc3)=NN(c3ccccc3OC)C2C1=O (stereo not drawn)
- activity change, negative = inhibition: inactive

Structure (SMILES): O=C(O)c1ccc(/C=C2\SC(=S)N(Nc3ccccc3)C2=O)cc1
- activity change, negative = inhibition: inactive

Structure (SMILES): CCn1c(O)c(N=NC(=O)CNC(=O)/C=C/c2ccco2)c2ccccc21
- activity change, negative = inhibition: inactive

Structure (SMILES): CC(=O)N1CCc2c(sc(NC(=O)C3CCCN3S(=O)(=O)c3cccs3)c2C#N)C1 (stereo not drawn)
- activity change, negative = inhibition: inactive

Structure (SMILES): CSc1ccc(/C=C/C(=O)c2ccc(NC(C)=O)cc2)cc1
- activity change, negative = inhibition: inactive

Structure (SMILES): Cc1nc2ccc3nc(NC(=O)c4ccc5c(c4)OCCO5)sc3c2s1
- activity change, negative = inhibition: inactive

Structure (SMILES): CC(=Nc1ccc(C)cc1C)c1sc2ccccc2c1O
- activity change, negative = inhibition: inactive

Structure (SMILES): CCCCCCc1cc2cc(C(=O)NC)c(=N)oc2cc1O
- AC50: 1.62 µM

Structure (SMILES): Nc1c(NCc2ccccc2)c(=O)[nH]c(=O)n1Cc1ccccc1
- activity change, negative = inhibition: inactive

Structure (SMILES): O=C(O)c1cccc(NC2=C(Cl)C(=O)c3ccccc3C2=O)c1
- activity change, negative = inhibition: inactive

Structure (SMILES): COc1cc(/C=N/NC(=O)c2ccc(=O)[nH]n2)ccc1O
- activity change, negative = inhibition: inactive

Structure (SMILES): CCN(CC)c1ccc(/C=N/N2CCN(c3ccccc3OC)CC2)cc1
- activity change, negative = inhibition: inactive

Structure (SMILES): O=C1CCNc2ccc(-c3ccccc3)cc21
- AC50: 1.34 µM

Structure (SMILES): O=C(N/N=C/c1c(O)n(C2CC2)c(=S)[nH]c1=O)c1ccccc1O
- AC50: 6.64 µM

Structure (SMILES): CC1(C)CC(=O)C2=C(C1)Nc1cc(Cl)ccc1S2
- activity change, negative = inhibition: inactive

Structure (SMILES): CN(C)C(=O)Oc1ccc2c(c1)O/C(=C\c1ccccc1)C2=O
- activity change, negative = inhibition: inactive

Structure (SMILES): CCN(CC)c1ccc(/C=C(/C#N)c2nc3ccc(C)cc3[nH]2)c(OC(C)C)c1
- AC50: 1.61 µM

Structure (SMILES): O=C1S/C(=C\c2cccs2)C(=O)N1c1ccc(O)cc1
- activity change, negative = inhibition: inactive

Structure (SMILES): CCOC(=O)c1cc(-c2ccccc2)sc1NC(=S)Nc1cccc(C)n1
- activity change, negative = inhibition: inactive

Structure (SMILES): O=C(NNC(=O)c1cc(Cl)ccc1[N+](=O)[O-])c1csc(N2CCOCC2)n1
- activity change, negative = inhibition: inactive

Structure (SMILES): O=C(NNC(=O)c1ccccc1Cl)c1csc(N2CCOCC2)n1
- activity change, negative = inhibition: inactive

Structure (SMILES): N=C1C(c2nc3ccccc3[nH]2)=C(O)CN1c1ccc(F)cc1
- activity change, negative = inhibition: inactive

Structure (SMILES): O=C(N/N=C/c1cccnc1)c1ccccc1
- activity change, negative = inhibition: inactive

Structure (SMILES): CN(CC(=O)Nc1cccc(F)c1)C(=O)/C=C/c1cn(Cc2ccccc2)nc1-c1cccnc1
- activity change, negative = inhibition: inactive

Structure (SMILES): O=C(NNC(=O)c1ccccc1O)c1ccc(S(=O)(=O)Nc2ccccc2)cc1
- AC50: 4.17 µM

Structure (SMILES): O=C(O)CCCC(=O)NNc1nc(-c2ccccc2)c2cc(Cl)ccc2n1
- activity change, negative = inhibition: inactive

Structure (SMILES): NC1=NC(=O)/C(=C\C=C\c2ccccc2)S1
- activity change, negative = inhibition: inactive

Structure (SMILES): COc1ccc2cc(/C=C3\SC(=S)NC3=O)c(N3CCOCC3)nc2c1
- activity change, negative = inhibition: inactive

Structure (SMILES): O=c1cc[nH]c2c1ccc1c(=O)cc[nH]c12
- activity change, negative = inhibition: inactive

Structure (SMILES): Cc1cc(C)cc(N2C(=O)NC(=O)/C(=C/c3cccn3-c3ccc(Cl)cc3)C2=O)c1
- activity change, negative = inhibition: inactive

Structure (SMILES): CN=c1scc(-c2ccco2)n1/N=C/c1ccc(O)c(O)c1
- activity change, negative = inhibition: inactive

Structure (SMILES): Cc1c(C(=O)NNC(=S)Nc2ccc(S(N)(=O)=O)cc2)oc2ccccc12
- activity change, negative = inhibition: inactive

Structure (SMILES): Cc1c2ccccc2nc2c(F)c(NCCO)c(F)c(F)c12
- AC50: 0.854 µM

Structure (SMILES): Nc1ccc2nc(CN3CCOCC3)[nH]c2c1
- activity change, negative = inhibition: inactive

Structure (SMILES): O=C(N/N=C/c1c(O)n(Cc2ccco2)c(=O)[nH]c1=O)c1ccccc1
- activity change, negative = inhibition: inactive

Structure (SMILES): Cc1cccc(N2C(=O)NC(=O)/C(=C/c3cc4c(cc3[N+](=O)[O-])OCO4)C2=O)c1
- AC50: 2.94 µM

Structure (SMILES): CCCc1nc2ccccc2c(=O)n1/N=C/c1ccc(O)c(O)c1
- activity change, negative = inhibition: inactive

Structure (SMILES): CCCC1=NN2C(=N)/C(=C\c3ccc(SCc4ccco4)o3)C(=O)N=C2S1
- AC50: 0.699 µM

Structure (SMILES): COCCCNC(=O)c1ccc2c3c(onc13)-c1ccccc1C2=O
- AC50: 0.186 µM

Structure (SMILES): NC(=S)N=Nc1c(O)[nH]c2ccccc12
- activity change, negative = inhibition: inactive

Structure (SMILES): Cn1ncc2c(NNC(=O)c3ccc(Cl)cc3Cl)ncnc21
- activity change, negative = inhibition: inactive

Structure (SMILES): O=c1[nH]c(/C=C/c2cccc3ccccc23)nc2ccccc12
- AC50: > 10 µM (inactive)

Structure (SMILES): Cc1ccc(NC(=O)CCC(=O)NNC(=S)Nc2ccccc2)c(C)c1
- activity change, negative = inhibition: inactive
